One experiment has as its target T1, human C1 r (Homo sapiens, UniProt P00736).
T1 construct: purchased Enzyme Research Labs (South Bend, Ind.)
T1 sequence (P00736 464-705 limits assumed): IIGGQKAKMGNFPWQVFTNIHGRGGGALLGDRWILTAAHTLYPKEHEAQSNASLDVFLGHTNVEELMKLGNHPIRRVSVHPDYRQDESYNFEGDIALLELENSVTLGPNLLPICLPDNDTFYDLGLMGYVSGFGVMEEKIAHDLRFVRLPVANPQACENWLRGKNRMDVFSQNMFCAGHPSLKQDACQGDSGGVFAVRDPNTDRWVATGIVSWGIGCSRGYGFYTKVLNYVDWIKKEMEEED
T1 sequence (P00736 18-463 partner limits assumed): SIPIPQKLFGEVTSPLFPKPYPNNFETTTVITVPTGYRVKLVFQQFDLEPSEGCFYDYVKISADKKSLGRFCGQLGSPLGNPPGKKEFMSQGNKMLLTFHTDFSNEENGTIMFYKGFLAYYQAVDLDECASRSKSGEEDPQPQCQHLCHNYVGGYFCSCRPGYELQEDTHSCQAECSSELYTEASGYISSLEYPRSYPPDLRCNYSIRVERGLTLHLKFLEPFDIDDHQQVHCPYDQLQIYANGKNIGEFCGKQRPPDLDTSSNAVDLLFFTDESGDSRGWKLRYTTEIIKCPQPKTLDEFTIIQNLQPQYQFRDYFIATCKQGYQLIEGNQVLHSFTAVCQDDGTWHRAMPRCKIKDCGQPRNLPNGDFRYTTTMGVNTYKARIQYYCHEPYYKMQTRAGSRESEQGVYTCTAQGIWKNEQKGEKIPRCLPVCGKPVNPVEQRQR
As to the kind of experiment: Assay of C1r Enzyme Activity (Assay 1), thioester substrate z-Gly-Arg-S-Bzl with DTNB. It is filed as biochemical. Here is the method:
Assay of C1 r Enzyme Activity Purified human C1 r was obtained commercially from Enzyme Research Labs (South Bend, Ind.). The enzyme is stored frozen at -70° C. at a stock concentration of about 1 mg/mL of protein until the enzyme is needed. […] The thioester substrate, z-Gly-Arg-S-Bzl, for C1 r assays (McRae, et al., 1981) is obtained commercially from Enzyme System Products (Livermore, Calif.). All other reagents were obtained from Sigma Chemical Co. (St. Louis, Mo.). The procedure for assaying the inhibition of C1 r enzyme activity is as follows. A 5 mM stock solution of z-Gly-Arg-S-Bzl is made in dimethylsulfoxide (DMSO) and stored at room temperature until needed. The stock substrate solution is diluted 3 parts stock substrate solution to 7 parts distilled water to make a 1.5 mM working substrate solution. The working substrate solution is made just before it is needed. A fresh solution of 20 μg/mL of C1 r enzyme is made in 10 mM Tris buffer, pH 7.4. The enzyme solution can be stored on ice for up to an hour. […] Compounds at concentrations ranging from 1 mM to 0.010 mM are dissolved in DMSO and a 10 μL aliquot of each concentration is deposited in a well of a 96-well microtiter plate. Fifty microliters of the working substrate solution and 50 μL of DTNB solution are then dispensed in the wells of the microtiter plate, followed by the immediate addition of 50 μL of the C1 r enzyme solution to start the assay. The assay produces a yellow color that is read in the kinetic mode using a Molecular Devices Thermomax microplate reader set to a wavelength of 405 nm. The assay background is followed by monitoring wells that contain substrate, buffer, and DTNB solutions but no enzyme. All assays are performed in triplicate at each inhibitor concentration tested. Values for each inhibitor concentration are reported as optical density (OD)/minute.

The target in experiment [1] is T2, human complement protease C1 r (Homo sapiens, UniProt P00736).
T2 sequence (P00736 464-705 limits assumed): T1 sequence (P00736 464-705 limits assumed)
T2 sequence (P00736 18-463 partner limits assumed): T1 sequence (P00736 18-463 partner limits assumed)
As to the kind of experiment: Assay 2, inhibition of human complement protease C1r with substrate ZVGR-pNA. Format: biochemical. The following applies: Table 2; substrate ZVGR-pNA 1.2 mM, pH 7.4, 25° C., 10 minutes preincubation; read-out: Inhibition of Clr ZVGRpNA - Assay 2. The procedure: The assay was performed in a 96-well format. Fifty microliters of water were added to each well followed by 2.5 μL of an inhibitory agent, usually in dimethyl foramide (DMF) (or water). A C1 r solution (100 μL) containing 0.1 μg of activated human C1 r and 100 mM Tris-HCl (pH 7.4 at 25° C.) was then added. The mixture was incubated for 10 minutes at 25° C. The reaction was then started by the addition of 100 μL of a 3 mM (Cbz-Val-Gly-Arg-p-nitroanilide) ZVGR-pNA solution. The final reaction mixture (250 μL) contained 40 mM of Tris-HCl, 1.2 mM of ZVGR-pNA, 0.1 μg C1 R and certain concentration of an inhibitor. The production of p-nitroaniline was monitored at 405 nm every 15 minutes up to 90 minutes (at 25° C.). The velocity was linear for at least 60 minutes.

[2] abbreviates: Table 1 and text, pH 7.4-7.5, read-out: Inhibition of Clr Assay 1 (IC50).
Where [3] appears, read: Table 2, pH 7.4-7.5, read-out: Inhibition of Clr Assay 1 IC50.

Like-named read-outs stand apart in the source and are kept apart here. Where only a bound is given, the exact number is not on record here.

With `CN(C(=O)c1ccccc1I)c1nc2ccc(Cl)cc2c(=O)o1` [Example 41, N-(6-Chloro-4-oxo-4H-benzo[d][1,3]oxazin-2-yl)-2-iodo-N-methyl-benzamide], on human C1 r (setting [2]), the IC50 is over 66 µM.
On the same count and under the same terms, to `CN(C(=O)c1ccccc1I)c1nc2cc(Cl)ccc2c(=O)o1` [Example 42, N-(7-Chloro-4-oxo-4H-benzo[d][1,3]oxazin-2-yl)-2-iodo-N-methyl-benzamide] belongs 18 µM; to `COc1ccc2nc(N(C)C(=O)c3ccccc3I)oc(=O)c2c1` [Example 43, 2-Iodo-N-(6-methoxy-4-oxo-4H-benzo[d][1,3]oxazin-2-yl)-N-methyl-benzamide], 48 µM.
Still for that read-out and setting: to `COc1ccc2c(=O)oc(N(C)C(=O)c3ccccc3I)nc2c1` [Example 44, 2-Iodo-N-(7-methoxy-4-oxo-4H-benzo[d][1,3]oxazin-2-yl)-N-methyl-benzamide] belongs over 66 µM.
The same measure, in the same setting: to `Cc1ccc2c(=O)oc(Nc3ccccc3Cl)nc2c1` [Example 45, 2-(2-Chloro-phenylamino)-7-methyl-benzo[d][1,3]oxazin-4-one] belongs 1.4 µM; to `O=c1oc(Nc2ccccc2I)nc2cc(F)c(F)cc12` [Example 46, 6,7-Difluoro-2-(2-iodo-phenylamino)-benzo[d][1,3]oxazin-4-one], 7 µM; to `O=c1oc(Nc2ccccc2Cl)nc2cc(Cl)c(Cl)cc12` [Example 48, 6,7-Dichloro-2-(2-chloro-phenylamino)-benzo[d][1,3]oxazin-4-one], 2 µM.
With `O=c1oc(Nc2c(Cl)cccc2Cl)nc2cc(Cl)ccc12` [Example 50, 7-Chloro-2-(2,6-dichloro-phenylamino)-benzo[d][1,3]oxazin-4-one], the IC50 at human C1 r (setting [2]) stood at 0.4 µM.
Take `Cc1ccccc1Nc1nc2ccccc2c(=O)o1` [Example 51, 2-o-Tolylamino-benzo[d][1,3]oxazin-4-one]: at human C1 r (setting [2]), the IC50 amounted to 31 µM.
In the case of `O=c1oc(Nc2ccccc2Cl)nc2cc([N+](=O)[O-])ccc12` [Example 52, 2-(2-Chloro-phenylamino)-7-nitro-benzo[d][1,3]oxazin-4-one], the IC50 at human C1 r (setting [2]) was 1.4 µM.
Still for that read-out and setting: to `O=c1oc(Nc2c(Cl)cccc2Cl)nc2ccccc12` [Example 53, 2-(2,6-Dichloro-phenylamino)-benzo[d][1,3]oxazin-4-one] belongs 1.5 µM; to `CN(C(=O)c1ccccc1I)c1nc2cccc(Cl)c2c(=O)o1` [Example 54, N-(5-Chloro-4-oxo-4H-benzo[d][1,3]oxazin-2-yl)-2-iodo-N-methyl-benzamide], 36 µM; to `Cc1ccc2c(=O)oc(N(C)C(=O)c3ccccc3I)nc2c1` [Example 55, 2-Iodo-N-methyl-N-(7-methyl-4-oxo-4H-benzo[d][1,3]oxazin-2-yl)-benzamide], 2.8 µM.
Same read-out and setting: to `CN(C(=O)c1ccccc1I)c1nc2cc(Cl)c(Cl)cc2c(=O)o1` [Example 56, N-(6,7-Dichloro-4-oxo-4H-benzo[d][1,3]oxazin-2-yl)-2-iodo-N-methyl-benzamide] belongs 8 µM; to `CN(C(=O)c1cccc2ccccc12)c1nc2ccccc2c(=O)o1` [Example 57, Naphthalene-1-carboxylic acid methyl-(4-oxo-4H-benzo[d][1,3]oxazin-2-yl)-amide], 23.4 µM.
With `CCCCc1ccc(C(=O)N(C)c2nc3ccccc3c(=O)o2)cc1` [Example 58, 4-Butyl-N-methyl-N-(4-oxo-4H-benzo[d][1,3]oxazin-2-yl)-benzamide], the IC50 on human C1 r (setting [2]) amounted to 16 µM.
Regarding `COc1ccc(C(=O)N(C)c2nc3ccccc3c(=O)o2)cc1` [Example 59, 4-Methoxy-N-methyl-N-(4-oxo-4H-benzo[d][1,3]oxazin-2-yl)-benzamide], on human C1 r (setting [2]), the IC50 is 19 µM.
Same read-out and setting: to `CN(C(=O)c1ccco1)c1nc2ccccc2c(=O)o1` [Example 61, Furan-2-carboxylic acid methyl-(4-oxo-4H-benzo[d][1,3]oxazin-2-yl)-amide] belongs 10.1 µM; to `CN(C(=O)c1cccnc1)c1nc2ccccc2c(=O)o1` [Example 62, N-Methyl-N-(4-oxo-4H-benzo[d][1,3]oxazin-2-yl)nicotinamide], 40 µM.
As for `CCCCCCC(=O)N(C)c1nc2ccccc2c(=O)o1` [Example 64, Heptanoic acid methyl-(4-oxo-4H-benzo[d][1,3]oxazin-2-yl)-amide], the IC50 at human C1 r (setting [3]) is 0.68 µM; in experiment [1] it was 0.0478 µM.
In the same order, the values of `CN(C(=O)C1CCCCC1)c1nc2ccccc2c(=O)o1` [Example 65, Cyclohexanecarboxylic acid methyl-(4-oxo-4H-benzo[d][1,3]oxazin-2-yl)-amide] are 1.2 µM and 0.0078 µM.
In the same order, the values of `CCCCCCC(=O)N(CC)c1nc2ccccc2c(=O)o1` [Example 66, Heptanoic acid ethyl-(4-oxo-4H-benzo[d][1,3]oxazin-2-yl)-amide] are 6.32 µM and 0.029 µM.
Take `CCCCCCCCCCC(=O)N(C)c1nc2ccccc2c(=O)o1` [Example 67, Undecanoic acid methyl-(4-oxo-4H-benzo[d][1,3]oxazin-2-yl)-amide]: the IC50 on human C1 r (setting [3]) is over 62.5 µM; in experiment [1], 0.5 µM.
In the same order, the values of `CN(C(=O)CCc1ccccc1)c1nc2ccccc2c(=O)o1` [Example 68, N-Methyl-N-(4-oxo-4H-benzo[d][1,3]oxazin-2-yl)-3-phenyl-propionamide] are 1.3 µM and 0.103 µM.
In the same order, the values of `CC(=O)N(C)c1nc2ccccc2c(=O)o1` [Example 69, N-Methyl-N-(4-oxo-4H-benzo[d][1,3]oxazin-2-yl)acetamide] are 30 µM and 0.399 µM.
Consider `N=C(N)c1ccc2cc(OC(=O)c3ccc(N=C(N)N)cc3)ccc2c1` [FUT-175, reference compound], for which the IC50 at human C1 r (setting [2]) was determined as 12 µM.

(Values after patent US5652237A, “2-substituted-4H-3, 1-benzoxazin-4-ones and benzthiazin-4-ones as inhibitors of complement C1r protease for the treatment of inflammatory processes” (Warner-Lambert Company, priority 1995, dated 1997).)
